Like-named read-outs stand apart in the source and are kept apart here.
Experiments:
Anopheles arabiensis = assay: Larvicidal screening (WHO protocol), 3rd instar larvae; format: in vivo; conditions: for mortality at 4 µg/mL: 4 μg/mL
Protocol: Anopheles arabiensis was used in the study according to the protocol described by WHO (1975) guidelines in an insectary simulating the temperature (27.5° C.), humidity (70%), and lighting (12/12) of a malaria-endemic environment. One mL of test compound (1 mg/mL) was added to 1 mL of acetone and followed by […] of distilled water to obtain a final concentration of 4 μg/mL. Thirty individuals of 3rd instar larvae were introduced into a container. Negative control was set up using the solvent (acetone) and distilled water, and a positive control included Temephos, which is an active emulsified organophosphate larvicidal used by malaria control programs. Larval mortality was examined for each container separately for 24 h and fed specially made cat food that contained less oil/fat content. The percentage of mortality was determined relative to the initial number of larvae exposed.
Differences in larval mortality between treatments were assessed with generalized linear models using a quasi-Poisson link function. Anopheles arabiensis mortality was the dependent variable, while fixed effects were test compounds and observation period (24 and 48 h). A p-value<0.05 was considered statistically significant. Throughout the text, the results are presented as the adjusted mean±the standard error.

[1] = Anopheles arabiensis larvae exposed for 24 h, read-out: Mortality in % (Mean ± SEM) 24 h
[2] = Anopheles arabiensis larvae exposed for 48 h, read-out: Mortality in % (Mean ± SEM) 48 h

SMILES | melting point [°C] | mortality at 4 µg/mL (Anopheles arabiensis; [1]) [%] | mortality at 4 µg/mL (Anopheles arabiensis; [2]) [%] | larval mortality rate in 48 hours (Anopheles arabiensis; in 48 hours, unit not given)
O=C(c1ccccc1)c1cc(Cl)ccc1OCc1nc(-c2ccccc2)no1 [Compound 5a, {5-Chloro-2-[(3-(phenyl)-1,2,4-oxadiazol-5-yl)-methoxy]-phenyl}-(phenyl)-methanone] | 108 to 110 |  |  | 
O=C(c1ccccc1)c1cc(Cl)ccc1OCc1nc(-c2ccc(F)cc2)no1 [Compound 5b, {5-Chloro-2-[(3-(4-fluorophenyl)-1,2,4-oxadiazol-5-yl)-methoxy]-phenyl}-(phenyl)-methanone] |  | 91.7 ± 1.61 | 94.7 ± 1.9 | 
O=C(c1ccccc1)c1cc(Cl)ccc1OCc1nc(-c2ccc(I)cc2)no1 [Compound 5c, {5-chloro-2-[(3-(4-iodophenyl)-1,2,4-oxadiazol-5-yl)-methoxy]-phenyl}-(phenyl)-methanone] | 124 to 126 |  |  | 
Cc1cc(F)c(-c2noc(COc3ccc(Cl)cc3C(=O)c3ccccc3)n2)cc1F [Compound 5d, {5-Chloro-2-[(3-(2,5-difluoro-4-methylphenyl)-1,2,4-oxadiazol-5-yl)-methoxy]-phenyl}-(phenyl)-methanone] | 87 to 89 |  |  | 
CCOc1ccc(-c2noc(COc3ccc(Cl)cc3C(=O)c3ccccc3)n2)cc1 [Compound 5e, {5-Chloro-2-[(3-(4-ethoxyphenyl)-1,2,4-oxadiazol-5-yl)-methoxy]-phenyl}-(phenyl)-methanone] | 80 to 82 |  |  | 
O=C(c1ccccc1)c1cc(Cl)ccc1OCc1nc(-c2ccc(F)c(Cl)c2)no1 [Compound 5f, {5-Chloro-2-[(3-(3-chloro-4-fluorophenyl)-1,2,4-oxadiazol-5-yl)-methoxy]-phenyl}-(phenyl)-methanone] |  | 98.2 ± 1.22 | 100 ± 2.01 | 100.00±2.01
CC(C)c1ccc(-c2noc(COc3ccc(Cl)cc3C(=O)c3ccccc3)n2)cc1 [Compound 5g, {5-Chloro-2-[(3-(4-isopropylphenyl)-1,2,4-oxadiazol-5-yl)-methoxy]-phenyl}-(phenyl)-methanone] | 110 to 112 |  |  | 
Cc1cc(-c2noc(COc3ccc(Cl)cc3C(=O)c3ccccc3)n2)ccc1F [Compound 5h, {5-Chloro-2-[(3-(4-fluoro-3-methylphenyl)-1,2,4-oxadiazol-5-yl)-methoxy]-phenyl}-(phenyl)-methanone] |  | 83.6 ± 2.01 | 86.1 ± 1.95 | 
COc1cc(-c2noc(COc3ccc(Cl)cc3C(=O)c3ccccc3)n2)ccc1F [Compound 5i, {5-Chloro-2-[(3-(4-fluoro-3-methoxyphenyl)-1,2,4-oxadiazol-5-yl)-methoxy]-phenyl}-(phenyl)-methanone] |  | 79.5 ± 1.09 | 84.7 ± 1.88 | 

From patent publication US11970470B1, “{5-chloro-2-(2-(3-(substitutedphenyl)-1,2,4-oxadiazol-5-yl)ethyl)phenyl}(phenyl)methanones as larvicidal agents” (KING FAISAL UNIVERSITY, priority 2023, dated 2024)
